The values that follow come from patent US4430343A, “Benzimidazole derivatives, process for the preparation thereof and pharmaceutical composition containing the same” (Kanebo, Ltd., priority 1981, dated 1984).

Where a name gives a salt, the structure may show the parent alone.

One series in a line: in vivo. The note with it: mouse, ddY male mice, oral, observed one week, Weil's method, read-out: Acute toxicity LD50. The protocol: The same compounds as used in the above protecting activity against histamine were used.
The LD50 was calculated based on the number of dead mice within one week according to Weil's method.

In series [1] the test system is histamine-induced lethality. The experiment in a line: Protecting activity against histamine-induced lethality (method similar to Labell & Tislow). In kind it is in vivo, Hartley strain male guinea pigs. To be noted: for ED50: Cavia porcellus, guinea pigs, oral, 1 hour before histamine 1.1 mg/kg into cephalic vein, survival after two hours, probit method; for protecting activity against histamine-induced lethality in comparison with that of the compounds of the present invention: relative to compounds of the present invention. The protocol:
1. Protecting activity against histamine-induced lethality
(3) Homochlorcyclizine hydrochloride (reference compound)
The test was carried out by a method similar to Labell & Tislow method (cf. J. Pharmacol Exp. Ther., 113, 72, 1955). […] After one hour, histamine (1.1 mg/kg, in a physiological saline solution) was injected to the animals in cephalic vein. After two hours, the number of live guinea pigs was counted, and therefrom ED50 of the compounds was calculated according to probit method.

The subject of series [2] is hexobarbital-induced sleep. As to the kind of experiment: Potentiating effect on hexobarbital-induced sleep in mice. The format is in vivo. From the text: Besides, the conventional antihistaminics have side-effect such as hypnotic activity.

Take `CCOCCn1c(N2CCN(CC)CC2)nc2ccccc21` [Example 9, 1-[2-(ethoxy)ethyl]-2-(4-ethyl-1-piperazinyl)benzimidazole.3/2 fumarate]: the LD50 at 168 h in the series “in vivo” stood at 2640 mg/kg. Also, in series [1], the ED50 worked out at 0.013 mg/kg. For the same compound, the “potentiating effect on hexobarbital-induced sleep” value (shortened to “potentiating effect”) in series [2] (50 mg/kg (p.o.)) is listed as “did not show such potentiating effect”.

Consider `C=CCOCCn1c(N2CCCN(C)CC2)nc2ccccc21` [Example 6, 1-[2-(allyloxy)ethyl]-2-(4-methyl-1-homopiperazinyl)benzimidazole difumarate], for which the LD50 at 168 h in “in vivo” came out at 904 mg/kg. In series [1], the ED50 turned out to be 0.0088 mg/kg.

For the compound `CCCOCCn1c(N2CCCN(C)CC2)nc2ccccc21` [Example 7, 1-[2-(n-propoxy)ethyl]-2-(4-methyl-1-homopiperazinyl)benzimidazole difumarate], the LD50 at 168 h in “in vivo” is 884 mg/kg. The ED50 in series [1] amounted to 0.0095 mg/kg.

As to `CCOCCn1c(N2CCCN(C)CC2)nc2ccccc21` [Example 3, 1-[2-(ethoxy)ethyl]-2-(4-methyl-1-homopiperazinyl)benzimidazole.difumarate], in the series “in vivo”, the LD50 at 168 h was 628 mg/kg. Further, the 50% effect level in series [1] (ED50) was put at a dose of 0.0047 mg/kg. In series [2] (50 mg/kg (p.o.)), the “potentiating effect” value was “did not show such potentiating effect”.

Turning to `C=CCOCCn1c(N2CCN(C)CC2)nc2ccccc21` [Example 4, 1-[2-(allyloxy)ethyl]-2-(4-methyl-1-piperazinyl)benzimidazole.3/2 fumarate], in the series “in vivo”, the LD50 at 168 h came out at 1640 mg/kg. The 50% effect level in series [1] (ED50) was put at a dose of 0.0058 mg/kg.

On to `C#CCOCCn1c(N2CCCN(C)CC2)nc2ccccc21` [Example 1, 1-[2-(propargyloxy)ethyl]-2-(4-methyl-1-homopiperazinyl)benzimidazole difumarate], for which the LD50 at 168 h in “in vivo” turned out to be 990 mg/kg. The same compound registered an ED50 in series [1] of 0.0046 mg/kg.

With `CN1CCN(c2nc3ccccc3n2C)CC1` [1-methyl-2-(4-methyl-1-piperazinyl)benzimidazole, reference compound], the “protecting activity against histamine-induced lethality in comparison with that of the compounds of the present invention” value (shortened to “protecting activity”) in series [1] is recorded as “about one severals to one tenth or less”.

With `CN1CCCN(C(c2ccccc2)c2ccc(Cl)cc2)CC1` (stereo not shown) [Homochlorcyclizine hydrochloride, reference compound], in the series “in vivo”, the LD50 at 168 h worked out at 382 mg/kg. Further, the 50% effect level in series [1] (ED50) was put at a dose of 0.26 mg/kg. For the same compound, in series [2] (25 mg/kg (p.o.)), the “potentiating effect” value is recorded as “remarkable potentiating effect”.

`CCOCCn1c(N2CCN(C)CC2)nc2ccccc21` [Example 5, 1-[2-(ethoxy)ethyl]-2-(4-methyl-1-piperazinyl)benzimidazole.3/2 fumarate]: in the series “in vivo”, the LD50 at 168 h was determined as 1490 mg/kg. The same compound registered an ED50 in series [1] of 0.007 mg/kg.

Turning to `CN1CCCN(c2nc3ccccc3n2CCOc2ccccc2)CC1` [Example 10, 1-[2-(phenoxy)ethyl]-2-(4-methyl-1-homopiperazinyl)benzimidazole difumarate], the LD50 at 168 h in the series “in vivo” was found to be 1010 mg/kg. Further, the ED50 in series [1] is 0.014 mg/kg.

With `CN1CCN(c2nc3ccccc3n2Cc2ccccc2)CC1` [1-benzyl-2-(4-methyl-1-piperazinyl)benzimidazole, reference compound], the “protecting activity” value in series [1] is reported as “about one severals to one tenth or less”.

Consider `CN1CCN(c2nc3ccccc3n2CCOc2ccccc2)CC1` [Example 12, 1-[2-(phenoxy)ethyl]-2-(4-methyl-1-piperazinyl)benzimidazole.3/2 fumarate], for which the LD50 at 168 h in the series “in vivo” was determined as 1110 mg/kg. The compound also returned a median effective dose (ED50) in series [1] of 0.017 mg/kg.

On to `CCOCCn1c(N2CCNCC2)nc2ccccc21` [Example 8, 1-[2-(ethoxy)ethyl]-2-(1-piperazinyl)benzimidazole.3/2 fumarate], for which, in the series “in vivo”, the LD50 at 168 h amounted to 2220 mg/kg. The ED50 in series [1] was determined as 0.011 mg/kg. Besides, in series [2] (50 mg/kg (p.o.)), the “potentiating effect” value was “did not show such potentiating effect”.

For the compound `CCCOCCn1c(N2CCN(C)CC2)nc2ccccc21` [Example 11, 1-[2-(n-propoxy)ethyl]-2-(4-methyl-1-piperazinyl)benzimidazole.3/2 fumarate], the LD50 at 168 h in “in vivo” is 2300 mg/kg. Further, the ED50 in series [1] turned out to be 0.015 mg/kg.

As for `C#CCOCCn1c(N2CCN(C)CC2)nc2ccccc21` [Example 2, 1-[2-(propargyloxy)ethyl]-2-(4-methyl-1-piperazinyl)benzimidazole.3/2fumarate], in “in vivo”, the LD50 at 168 h is 818 mg/kg. In series [1], this compound came in with an ED50 of 0.0047 mg/kg. For the same compound, the “potentiating effect” value in series [2] (50 mg/kg (p.o.)) was “did not show such potentiating effect”.

Consider `CN1CCN(c2nc3ccccc3[nH]2)CC1` [2-(4-methyl-1-piperazinyl)benzimidazole, reference compound], for which the “protecting activity” value in series [1] is on record as “about one severals to one tenth or less”.

Usually LD50 stands for the dose at which mortality reaches 50%. In general, ED50 refers to the dose that gives a 50% effect, or the effect in half of the subjects.
